Values joined by “and” are separate entries in the source; they are usually repeats but may differ in a detail not shown here. Equal entries are not always repeated.
Key:
[1] = tested on: P. aeruginosa strain PAO1; assay: P. aeruginosa pulmonary infection in neutropenic ICR mice, ceftazidime alone or combined with electric fields / sham heat; format: in vivo, Pseudomonas aeruginosa; conditions: for Average lungs weight, weight in mg (±STDEV): end of 48 hour treatment
Method: In vivo experiments were also performed on Pseudomonas aeruginosa strain PAO1 in lungs of infected mice. For this example, bacteria were grown in LB media (1.0% Bacto tryptone, 0.5% Yeast extract, 1.0% NaCl (Frutarom, Haifa, Israel). Broth cultures of freshly plated bacteria were grown in 250 ml of liquid medium at 37° C. in an orbital shaker at 220 RPM (New Brunswick Scientific, N.J., USA) up to logarithmic phase, centrifuged and resuspended in saline containing 15% glycerol. Stocks were divided into aliquots of 50 μl each containing 2.17×10^7 Colony Forming Units (CFU)/ml and kept at −70° C. until use.
Experiments were conducted on 7- to 8-week-old (body weight 26-35 g) ICR female mice obtained from Harlan laboratories (Israel). Mice were housed under standard conditions of light and temperature, and were fed standard laboratory chow and water ad libitum. Electric fields were generated by 2 pairs of parallel metal electrodes, 15 mm-long; 3 mm-high. The front of the electrodes was completely insulated from the medium by a ceramic [(lead magnesium niobate-lead titanate (PMN-PT) (EDO, New York, N.Y.)] having a very high dielectric constant (∈>5000) such that their capacitance was about 10 nF each. The back of the electrodes was insulated by a 2.5 mm thick layer of 353ND medical grade epoxy (Epoxy Technology, Billerica, Mass., USA). Each electrode contained a thermistor placed within the epoxy directly on top of the ceramic in order to allow for constant monitoring of the electrodes' temperature.
Two control groups were set in each experiment: sham heat control, and non treated control (referred to as “Control”). Control electrodes of identical size and shape to the electric fields electrodes, were placed on mice of the two control groups. The Sham heat electrodes produced equal temperature changes to those produced by the field electrodes by means of a heating resistor incorporated within them, and the sham heat electrodes were placed in the same positions as the real electrodes. Except for the differences in the electrodes, the control mice and the sham heat treated mice were held in conditions identical to those of the electric fields treated mice.
Mice were rendered neutropenic (neutrophil counts, <100/mm^3), as described in Andes and Craig (1998), by two intraperitoneal injections of cyclophosphamide; four days before infection (150 mg/kg of body weight) and an additional injection one day before infection (100 mg/kg of body weight). The pulmonary infection model of Takeda et al., (2006) was used with minor modifications: Anesthetized ICR mice were challenged intra-nasally with 20 μL of saline containing various concentrations (10^4-10^7 CFU/ml) of P. aeruginosa strain PAO1. On the day of infection, immediately before use, frozen bacterial cultures were thawed and diluted in saline to the desired concentration. Anesthetized mice were challenged intra-nasally with the bacterial suspension. Mice were sacrificed at 0, 3, 6, 9, 24, and 48 hours after infection in order to determine CFU counts in their lungs. After skin disinfection with 70% alcohol, lungs from sacrificed mice were removed aseptically, photographed, weighted and their CFU content was determined.
Application of electric fields to the mouse torso was carried out as follows: 4 days before infection, the torso of anesthetized mice was shaved with electrical clippers and depilated using cold wax. Electric fields treatment was applied through four insulated electrodes placed around the mouse torso so as to generate fields of two perpendicular directions. Mice were placed inside the IVC cages and the electrodes were connected to the connection box. Application of electric fields began 3 hours after infection and was maintained for 48 h with two brief stops daily for monitoring the physical condition of the mice. After 48 h of treatment, the mice were sacrificed and bacterial numbers in lung were determined. […]

S. aureus [2] = assay: Checkerboard test of the combined effect of electric fields and chloramphenicol on growth of S. aureus; format: cell-based, Staphylococcus aureus strain SH1000
Method: At the end of treatment, the cultures were stirred several times by up and down pipetting. Four aliquots of 250 μl were dispensed into a 96 MicroWells plate (Nunclon™ Δ, Nunc, Denmark) and the OD was determined spectrophotometrically with a microplate reader (Infinite 200, Tecan, Austria) at 750 nm. The optical densities (ODs) of the blanks, which consisted of uninoculated LB, were subtracted from the ODs of the inoculated plates. The percentage of growth for each well was calculated by dividing the OD of the wells by that of the control: (OD750mm of treated wells/OD750nm of the control well)×100.
Drug interactions with the electric fields were assessed according to the checkerboard method, with the following modifications: S. aureus inocula were diluted in LB medium containing the antibiotic to final concentration of 0.5 to 1.0×10^5 CFU/ml. The final concentrations of the chloramphenicol ranged from 0.125 to 16 μg/ml. Petri dishes containing the electric fields chamber were filled with 7 ml of the diluted cultures, and placed inside a pre cooled incubator. Fields were applied for 6 hours with the field direction alternating every 300 ms and the field intensities were varied by changing the incubator ambient temperature. Thus, lower ambient temperatures allowed for higher field intensities while maintaining the proper culture temperature of 37° C. Control plates containing the same electric fields chambers were placed in a pre-warmed incubator set at 37° C. At the end of the treatment, the cultures were stirred by pipetting the plate content up and down. Quadruplicates of 250 μl each were transferred to a 96 MicroWells plate (Nunc) and the OD was determined using Tecan microplate reader. Cultures were subjected to serial 10-fold dilution (up to 1/10,000) by adding 20 μl of sample to 180 μl of saline solution (0.85% NaCl), from which 80 μl aliquots were plated on LB agar plates (1.5% agar, 1.0% Bacto tryptone, 1% NaCl, 0.5% Yeast extract). CFU counts were performed after overnight incubation at 37° C.
To evaluate the effect of the combinations, the fractional inhibitory concentration (FIC) was calculated for the electric fields and for each antibiotic. The following formulas were used to calculate the FIC index: FIC of electric fields=MIC of electric fields in combination/MIC of electric fields alone, FIC of drug B=MIC of drug B in combination/MIC of drug B alone, and FIC index=FIC of electric fields+FIC of drug B. Synergy was defined as an FIC index of ≦0.5. Indifference was defined as an FIC index of >0.5 but of ≦4. Antagonism was defined as an FIC index of >4.

S. aureus [3] = assay: MIC of antibiotic by serial twofold dilutions (NCCLS guidelines); format: cell-based, Staphylococcus aureus strain SH1000; conditions: Staphylococcus aureus; chloramphenicol alone; lowest concentration that completely inhibited growth; read-out: MIC against S. aureus
Method: Experiments were also performed on two different types of bacteria—Pseudomonas aeruginosa strain PAO1 and Staphylococcus aureus strain SH1000. All strains were grown in LB media (1.0% Bacto tryptone, 0.5% Yeast extract, 1% NaCl). Broth cultures of freshly plated bacteria strains were grown in 3 ml of liquid medium at 37° C. for 15 hours in an orbital shaker (220 RPM) and diluted in fresh LB broth to a predetermined absorbance at 595 nm which yielded the desired CFU per ml.
The combined effect of the electric fields and antibiotics was also tested. Chloramphenicol was obtained as powder and dissolved in EtOH (99%, Frutarom). All the stock solutions were filter sterilized and held at −20° C. until use. Serial twofold dilutions of each antibiotic agent were prepared following NCCLS guidelines. […] The MIC of electric fields was defined as the lowest intensity that inhibits growth by 80% or more compared with control, as determined using the microplate reader.

CC(C)(O/N=C(\C(=O)N[C@@H]1C(=O)N2C(C(=O)[O-])=C(C[n+]3ccccc3)CS[C@H]12)c1csc(N)n1)C(=O)O [ceftazidime, Ceftazidime]
reduction in the lung CFU content compared to the antibiotic-only treated control ([1]; 48 h combined treatment of electric fields and ceftazidime): 1.5 log | Log CFU (T48) ± STDEV, number of bacteria in the lungs of infected mice ([1]; ceftazidime 5 mg/kg i.p. twice daily + electric fields, 48 h): 5.0 ± 1.7 Log CFU | Log CFU (T48) ± STDEV, number of bacteria in the lungs of infected mice ([1]; ceftazidime 5 mg/kg i.p. twice daily + sham heat, 48 h): 6.0 ± 2.3 Log CFU | Log CFU (T48) ± STDEV, number of bacteria in the lungs of infected mice ([1]; ceftazidime 5 mg/kg i.p. twice daily alone (control of the with-ceftazidime groups), 48 h): 6.5 ± 2.5 Log CFU | growth reduction compared to the non treated lungs ([1]; ceftazidime 10 mg/kg BW/day alone): ~2 logs | log CFU/lung (T48/T0) (±STDEV), P. aeruginosa growth in mice lungs ([1]; ceftazidime + electric fields, 48 h): 0.4 log CFU/lung and 0.4 ± 1.7 log CFU/lung | Average lungs weight, weight in mg (±STDEV) ([1]; ceftazidime + electric fields): 244 ± 31 mg | log CFU/lung (T48/T0) (±STDEV), P. aeruginosa growth in mice lungs ([1]; ceftazidime + sham heat, 48 h): 1.3 ± 2.2 log CFU/lung | Average lungs weight, weight in mg (±STDEV) ([1]; ceftazidime + sham heat): 275 ± 60 mg | log CFU/lung (T48/T0) (±STDEV), P. aeruginosa growth in mice lungs ([1]; ceftazidime alone (control), 10 mg/kg BW/day, 48 h, 10 mg/kg/day): 1.9 log CFU/lung and 1.9 ± 2.5 log CFU/lung | Average lungs weight, weight in mg (±STDEV) ([1]; ceftazidime alone (control)): 310 ± 77 mg | lung CFU count reduction compared to the control ([1]; combined treatment of sham heat and ceftazidime, 48 h): did not result in a significant count reduction

O=C(N[C@H](CO)[C@H](O)c1ccc([N+](=O)[O-])cc1)C(Cl)Cl [chloramphenicol, Chloramphenicol]
combined effect of electric fields and chloramphenicol (S. aureus [2]; S. aureus, 10 MHz fields, 6 hours): additive effect | growth of S. aureus relative to control (S. aureus [2]; chloramphenicol 0.25 μg/ml, 0 V/cm, 6 hours): 66% | growth of S. aureus relative to control (S. aureus [2]; chloramphenicol 0.25 μg/ml, 0.5-2.0 V/cm 10 MHz fields, 6 hours): 39% | growth of S. aureus relative to control (S. aureus [2]; chloramphenicol 0.25 μg/ml, 2.0-2.5 V/cm 10 MHz fields, 6 hours): 51% | growth of S. aureus relative to control (S. aureus [2]; chloramphenicol 0.25 μg/ml, 3.5-4.5 V/cm 10 MHz fields, 6 hours): 13% | growth of S. aureus relative to control (S. aureus [2]; chloramphenicol 0.5 μg/ml, 0 V/cm, 6 hours): 45% | growth of S. aureus relative to control (S. aureus [2]; chloramphenicol 0.5 μg/ml, 0.5-2.0 V/cm 10 MHz fields, 6 hours): 16% | growth of S. aureus relative to control (S. aureus [2]; chloramphenicol 0.5 μg/ml, 2.0-2.5 V/cm 10 MHz fields, 6 hours): 20% | growth of S. aureus relative to control (S. aureus [2]; chloramphenicol 0.5 μg/ml, 3.5-4.5 V/cm 10 MHz fields, 6 hours): 21% | growth of S. aureus relative to control (S. aureus [2]; chloramphenicol 1 μg/ml, 0 V/cm, 6 hours): 30% | growth of S. aureus relative to control (S. aureus [2]; chloramphenicol 1 μg/ml, 0.5-2.0 V/cm 10 MHz fields, 6 hours): 26% | growth of S. aureus relative to control (S. aureus [2]; chloramphenicol 1 μg/ml, 2.0-2.5 V/cm 10 MHz fields, 6 hours): 6% | growth of S. aureus relative to control (S. aureus [2]; chloramphenicol 1 μg/ml, 3.5-4.5 V/cm 10 MHz fields, 6 hours): 2% | growth of S. aureus relative to control (S. aureus [2]; chloramphenicol 4 μg/ml, 0 V/cm, 6 hours): 7% | growth of S. aureus relative to control (S. aureus [2]; chloramphenicol 4 μg/ml, 0.5-2.0 V/cm 10 MHz fields, 6 hours): 13% | growth of S. aureus relative to control (S. aureus [2]; chloramphenicol 4 μg/ml, 2.0-2.5 V/cm 10 MHz fields, 6 hours): 2% | growth of S. aureus relative to control (S. aureus [2]; chloramphenicol 4 μg/ml, 3.5-4.5 V/cm 10 MHz fields, 6 hours): 0% | FIC index (S. aureus [2]; electric fields + chloramphenicol, based on OD measurements): 0.625 | concentration sufficient to produce complete inhibition of the growth of S. aureus in combination with electric fields (S. aureus [2]; in the presence of 4 V/cm 10 MHz electric fields applied for 6 hours, field direction alternating every 300 ms): 1 µg/mL | MIC (S. aureus [3]): 4 µg/mL
